{
  "source": "ChEMBL document CHEMBL5126505",
  "about": "“Adenosine receptor antagonists: Recent advances and therapeutic perspective” (Eur J Med Chem, 2022)",
  "key": {"[1]": {"target": "T1, Adenosine receptor A2a (Homo sapiens, UniProt P29274)", "T1 sequence (P29274 whole entry)": "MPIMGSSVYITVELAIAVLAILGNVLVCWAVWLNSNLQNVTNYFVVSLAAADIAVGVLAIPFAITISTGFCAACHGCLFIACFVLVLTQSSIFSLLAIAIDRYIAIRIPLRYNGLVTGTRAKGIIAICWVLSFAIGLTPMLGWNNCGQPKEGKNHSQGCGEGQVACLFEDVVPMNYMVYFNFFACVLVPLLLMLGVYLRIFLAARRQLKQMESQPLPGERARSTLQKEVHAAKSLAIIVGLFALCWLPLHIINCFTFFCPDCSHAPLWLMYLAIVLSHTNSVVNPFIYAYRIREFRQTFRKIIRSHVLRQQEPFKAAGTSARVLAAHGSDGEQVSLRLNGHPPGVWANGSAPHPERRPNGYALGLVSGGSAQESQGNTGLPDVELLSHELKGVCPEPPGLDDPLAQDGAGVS", "experiment": "Binding affinity to human adenosine A2A receptor measured by radioligand-based affinity assay"}, "[2]": {"target": "T2, Adenosine receptor A3 (Homo sapiens, UniProt P0DMS8)", "T2 sequence (P0DMS8 whole entry)": "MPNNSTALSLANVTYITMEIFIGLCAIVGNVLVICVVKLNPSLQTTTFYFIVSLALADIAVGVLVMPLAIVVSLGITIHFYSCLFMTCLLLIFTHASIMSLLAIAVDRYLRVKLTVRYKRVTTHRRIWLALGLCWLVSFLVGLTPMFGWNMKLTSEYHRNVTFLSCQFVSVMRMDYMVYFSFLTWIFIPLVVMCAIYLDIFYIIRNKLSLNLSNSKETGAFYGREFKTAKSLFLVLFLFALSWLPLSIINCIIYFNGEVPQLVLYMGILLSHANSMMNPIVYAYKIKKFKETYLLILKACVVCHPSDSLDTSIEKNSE", "experiment": "biochemical", "description": "Displacement of [3H]HEMADO from human adenosine A3 receptor expressed in CHO cells measured by radioligand competition assay"}, "[3]": {"target": "T1, Adenosine receptor A2a"}, "[4]": {"target": "T2, Adenosine receptor A3", "description": "Binding affinity to human adenosine A3A receptor"}, "[5]": {"target": "T2, Adenosine receptor A3", "remark": "listed apart in the source", "description": "Binding affinity to human adenosine A3A receptor measured by radioligand-based affinity assay"}, "[6]": {"target": "T1, Adenosine receptor A2a", "remark": "listed apart in the source"}, "[7]": {"target": "T3, Adenosine receptor A1 (Homo sapiens, UniProt P30542)", "T3 sequence (P30542 whole entry)": "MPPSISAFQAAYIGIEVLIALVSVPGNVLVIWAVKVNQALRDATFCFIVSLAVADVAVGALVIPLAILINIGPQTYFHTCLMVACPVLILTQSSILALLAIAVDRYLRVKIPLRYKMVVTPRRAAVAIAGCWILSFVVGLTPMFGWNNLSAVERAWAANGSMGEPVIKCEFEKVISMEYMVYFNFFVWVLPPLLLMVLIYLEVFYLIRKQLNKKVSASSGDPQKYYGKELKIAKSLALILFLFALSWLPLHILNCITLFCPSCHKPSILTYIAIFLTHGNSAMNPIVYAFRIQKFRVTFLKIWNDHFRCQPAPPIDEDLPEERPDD", "description": "Binding affinity to human adenosine A1 receptor"}, "[8]": {"experiment": "in vivo", "conditions": "plasma", "description": "Cmax in plasma (unknown origin)"}, "[9]": {"target": "T1, Adenosine receptor A2a", "remark": "listed apart in the source", "description": "Antagonist activity at human adenosine A2A receptor expressed in CHO cells assessed as inhibition of NECA-induced cAMP production measured by scintillation counter assay"}, "[10]": {"target": "T3, Adenosine receptor A1", "remark": "listed apart in the source", "description": "Binding affinity to human adenosine A1A receptor measured by radioligand-based affinity assay"}, "[11]": {"experiment": "physchem", "conditions": "phosphate buffered saline", "description": "Solubility of the compound in phosphate buffered saline"}, "[12]": {"experiment": "physchem", "conditions": "simulated intestinal fluid", "description": "Solubility of the compound in simulated intestinal fluid"}, "[13]": {"experiment": "physchem", "conditions": "water", "description": "Solubility of the compound in water"}, "[14]": {"experiment": "physchem", "conditions": "simulated gastric fluid", "description": "Solubility of the compound in simulated gastric fluid"}, "[15]": {"target": "T1, Adenosine receptor A2a", "remark": "listed apart in the source", "description": "Antagonist activity at adenosine A2A receptor (unknown origin)"}, "[16]": {"target": "T1, Adenosine receptor A2a", "experiment": "Antagonist activity at human adenosine A2A receptor expressed in CHO cells assessed as inhibition of NECA-induced cAMP production", "type": "functional, cell-based"}, "[17]": {"target": "T3, Adenosine receptor A1", "remark": "listed apart in the source", "description": "Antagonist activity at human adenosine A1A receptor"}, "[18]": {"target": "T4, Adenosine receptor A2b (Homo sapiens, UniProt P29275)", "T4 sequence (P29275 whole entry)": "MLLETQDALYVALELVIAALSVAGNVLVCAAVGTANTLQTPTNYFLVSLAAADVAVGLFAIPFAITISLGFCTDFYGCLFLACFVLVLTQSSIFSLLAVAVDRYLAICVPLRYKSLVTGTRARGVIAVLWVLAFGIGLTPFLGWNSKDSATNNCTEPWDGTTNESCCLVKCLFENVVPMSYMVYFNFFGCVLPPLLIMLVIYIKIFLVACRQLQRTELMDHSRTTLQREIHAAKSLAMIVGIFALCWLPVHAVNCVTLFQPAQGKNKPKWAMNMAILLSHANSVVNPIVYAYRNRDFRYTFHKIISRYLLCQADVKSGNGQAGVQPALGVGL", "description": "Binding affinity to human adenosine A2B receptor"}},
  "data": [
    {"smiles": "S=c1sc2c(ncn3nc(-c4ccco4)nc23)n1CCc1ccccc1", "values": [
      {"measurement": "Ki", "setting": "[1]", "value": 0.0063, "unit": "µM"}
    ]},
    {"smiles": "COc1ccc(-c2cc3cccc(OC)c3oc2=O)cc1", "values": [
      {"measurement": "Ki", "setting": "[2]", "value": 5.32, "unit": "µM"}
    ]},
    {"smiles": "CCOc1cccc2cc(-c3ccccc3)c(=O)oc12", "values": [
      {"measurement": "Ki", "setting": "[2]", "value": 3.93, "unit": "µM"}
    ]},
    {"smiles": "CCOc1cccc2cc(-c3ccc(OC)cc3)c(=O)oc12", "values": [
      {"measurement": "Ki", "setting": "[2]", "value": 0.258, "unit": "µM"}
    ]},
    {"smiles": "Cc1ccc(-c2cc3cc(C)ccc3oc2=O)cc1", "values": [
      {"measurement": "Ki", "setting": "[2]", "value": 2.68, "unit": "µM"}
    ]},
    {"smiles": "CCN1CCCC(Nc2cc(C)nc(NC(=N)Nc3ccc(Cl)c(Cl)c3)n2)C1", "note": "(centres undefined)", "values": [
      {"measurement": "IC50", "setting": "[3]", "value": 0.546, "unit": "µM"}
    ]},
    {"smiles": "COc1ccc(OC)c(-c2cc(NC(C)=O)nc(-c3cc(OC)ccc3OC)n2)c1", "values": [
      {"measurement": "Ki", "setting": "[4]", "value": 0.007, "unit": "µM"}
    ]},
    {"smiles": "COc1ccc(-c2cc(NC(C)=O)nc(-c3ccc(OC)c(OC)c3)n2)cc1OC", "values": [
      {"measurement": "Ki", "setting": "[4]", "value": 0.007, "unit": "µM"}
    ]},
    {"smiles": "Cc1nc(NC(=O)c2ccccc2)c2nn(-c3ccccc3)cc2n1", "values": [
      {"measurement": "Ki", "setting": "[5]", "value": 0.024, "unit": "µM"}
    ]},
    {"smiles": "COc1ccccc1Cc1cc2c(N)nc(-c3ccc(C)o3)nc2s1", "values": [
      {"measurement": "Ki", "setting": "[6]", "value": 0.0029, "unit": "µM"}
    ]},
    {"smiles": "Cc1ccc(-c2nc(N)c3cc(Cc4ccccc4Cl)sc3n2)o1", "values": [
      {"measurement": "Ki", "setting": "[6]", "value": 0.0037, "unit": "µM"}
    ]},
    {"smiles": "Cc1ccc(-c2nc(N)c3cc(Cc4ccccc4)sc3n2)o1", "values": [
      {"measurement": "Ki", "setting": "[6]", "value": 0.298, "unit": "µM"},
      {"measurement": "Ki", "setting": "[7]", "value": 0.0111, "unit": "µM"},
      {"measurement": "Cmax", "setting": "[8]", "value": 5, "unit": "µM"}
    ]},
    {"smiles": "CC(C)n1cc2c(Cl)nc(N(C(=O)c3ccccc3)C(=O)c3ccccc3)nc2n1", "values": [
      {"measurement": "Ki", "setting": "[5]", "value": 0.9, "unit": "µM"}
    ]},
    {"smiles": "Nc1nc(CCCc2ccccc2)nc2cn(-c3ccccc3)nc12", "values": [
      {"measurement": "Ki", "setting": "[9]", "value": 0.423, "unit": "µM"}
    ]},
    {"smiles": "CCOC(=O)c1c(NC(=O)c2sc(Nc3ccc(C)cc3)nc2-c2ccc(C)cc2)sc2c1CCCC2", "values": [
      {"measurement": "Ki", "setting": "[2]", "value": 2.2, "unit": "µM"}
    ]},
    {"smiles": "CCOC(=O)c1c(NC(=O)c2sc(Nc3ccc(OC)cc3)nc2-c2ccc(C)cc2)sc2c1CCCC2", "values": [
      {"measurement": "Ki", "setting": "[2]", "value": 5.2, "unit": "µM"}
    ]},
    {"smiles": "CCn1c(=O)c2c(nc(CCCc3ccccc3)n2CC)n(CC)c1=O", "values": [
      {"measurement": "Ki", "setting": "[7]", "value": 0.164, "unit": "µM"}
    ]},
    {"smiles": "CCn1c(=O)c2c(nc(COc3ccccc3)n2C)n(CC)c1=O", "values": [
      {"measurement": "Ki", "setting": "[7]", "value": 0.874, "unit": "µM"}
    ]},
    {"smiles": "Cc1ccc(-c2cc(-c3cccc(C(=O)N4CCCCC4)c3)nc(N)n2)o1", "values": [
      {"measurement": "Ki", "setting": "[6]", "value": 0.00954, "unit": "µM"},
      {"measurement": "Ki", "setting": "[7]", "value": 0.00634, "unit": "µM"}
    ]},
    {"smiles": "Nc1nc(-c2ccccc2)cc(-c2cccc(OC(=O)N3CCCCC3)c2)n1", "values": [
      {"measurement": "Ki", "setting": "[10]", "value": 3.54, "unit": "µM"},
      {"measurement": "Ki", "setting": "[1]", "value": 1.95, "unit": "µM"}
    ]},
    {"smiles": "CN1CCN(C(=O)Oc2cccc(-c3cc(-c4ccccc4)nc(N)n3)c2)CC1", "values": [
      {"measurement": "Ki", "setting": "[10]", "value": 3.54, "unit": "µM"},
      {"measurement": "Ki", "setting": "[1]", "value": 1.95, "unit": "µM"}
    ]},
    {"smiles": "Nc1nc(-c2ccccc2)cc(-c2cccc(OC(=O)N3CCOCC3)c2)n1", "values": [
      {"measurement": "Ki", "setting": "[10]", "value": 3.54, "unit": "µM"},
      {"measurement": "Ki", "setting": "[1]", "value": 1.95, "unit": "µM"}
    ]},
    {"smiles": "OC[C@@H]1CCCN1c1ncnc2sc(Nc3cccc(Br)c3)nc12", "values": [
      {"measurement": "solubility", "setting": "[11]", "value": 4800, "unit": "µg/mL"},
      {"measurement": "solubility", "setting": "[12]", "value": 3500, "unit": "µg/mL"},
      {"measurement": "solubility", "setting": "[13]", "value": 4300, "unit": "µg/mL"},
      {"measurement": "solubility", "setting": "[14]", "value": 3500, "unit": "µg/mL"}
    ]},
    {"smiles": "CCn1c(=O)c2c(nc(COc3ccc(Br)cc3)n2C)n(CC)c1=O", "values": [
      {"measurement": "Ki", "setting": "[7]", "value": 0.264, "unit": "µM"}
    ]},
    {"smiles": "Oc1ccc(-c2cnc(N[C@H]3CC[C@H](O)CC3)nc2-c2ccccc2)cc1Cl", "values": [
      {"measurement": "Ki", "setting": "[3]", "value": 0.0077, "unit": "µM"}
    ]},
    {"smiles": "CCn1c(=O)c2c(nc(COc3ccc(OC)cc3)n2C)n(CC)c1=O", "values": [
      {"measurement": "Ki", "setting": "[6]", "value": 0.237, "unit": "µM"}
    ]},
    {"smiles": "CCCn1c(=O)[nH]c2nc(-c3cnn(Cc4cccc(C(F)(F)F)c4)c3)[nH]c2c1=O", "values": [
      {"measurement": "Ki", "setting": "[15]", "value": 0.006, "unit": "µM"}
    ]},
    {"smiles": "CCOc1ccc(-c2cn3c(=O)n(-c4ccccc4)nc3c(N)n2)cc1", "values": [
      {"measurement": "IC50", "setting": "[16]", "value": "> 30", "unit": "µM"}
    ]},
    {"smiles": "COc1ccc2oc(=O)c(C(=O)Nc3cccc(O)c3)cc2c1", "values": [
      {"measurement": "Ki", "setting": "[7]", "value": 41, "unit": "µM"},
      {"measurement": "Ki", "setting": "[4]", "value": 22, "unit": "µM"}
    ]},
    {"smiles": "CCCn1c(Oc2cccc(C(F)(F)F)c2)nc2nc(C3CCCC3)[nH]c2c1=O", "values": [
      {"measurement": "Ki", "setting": "[17]", "value": 0.002, "unit": "µM"}
    ]},
    {"smiles": "CCCn1c(OC2CCOC2)nc2nc(C3CCCC3)[nH]c2c1=O", "note": "(centres undefined)", "values": [
      {"measurement": "Ki", "setting": "[7]", "value": 0.057, "unit": "µM"}
    ]},
    {"smiles": "Cc1cccc(NC(=O)c2cc3ccccc3oc2=O)c1", "values": [
      {"measurement": "Ki", "setting": "[4]", "value": 2.4, "unit": "µM"}
    ]},
    {"smiles": "O=c1[nH]c(N2CCCC2)nc2nccc(-c3ccc(Cl)cc3)c12", "values": [
      {"measurement": "IC50", "setting": "[10]", "value": 1.48, "unit": "µM"}
    ]},
    {"smiles": "CC1=C(C(=O)OC(C)C(F)(F)F)C(c2ccco2)n2c(nc3ccccc32)N1", "note": "(centres undefined)", "values": [
      {"measurement": "Ki", "setting": "[18]", "value": 0.0291, "unit": "µM"}
    ]}
  ]
}
